Data as given in article PMC11845477, “Exploring the principles behind antibiotics with limited resistance” (Nature Communications, 2025).
Where a SMILES comes first, the peptide text is derived from it. Bridges are numbered along the chain shown (N, C = ends). [ ]: non-standard residue; d: D form. The star is where a group is joined. X1 = NC[C@@H](CC(=O)*)c1cccc(Cl)c1; X2 = CC[C@H](C)CCCCC(=O)*; Dab = NCC[C@H](N)C(=O)O; Dap = NC[C@H](N)C(=O)O

System: P. aeruginosa ATCC BAA-3107 (SEN) and P. aeruginosa LESB58 (MDR)
Assay: Adaptive laboratory evolution (ALE), relative MIC of evolved lines
Format: cell-based, Pseudomonas aeruginosa
From the text: Using the same set of bacterial strains, we initiated adaptive laboratory evolution with the aim to maximize the level of antibiotic resistance in the populations achieved during a longer, but fixed time period.
An established protocol for adaptive laboratory evolution[46],[73] was followed to propagate populations with the highest resistance levels. Starting with an antibiotic concentration that caused approximately 50% growth inhibition, ten parallel populations for each antibiotic-ancestor strain combination were grown for 72 hours at 37 °C with continuous shaking (300 RPM). MHB broth medium was used unless stated otherwise. After each incubation, 20 µl of each culture was transferred to four new wells containing fresh medium with increasing antibiotic concentrations (0.5×, 1×, 1.5×, and 2.5× the previous concentration) in a chessboard layout to monitor potential cross-contamination. Growth was monitored by measuring OD600 using a Biotek Synergy 2 microplate reader, and only populations grown in the highest drug concentration with an OD600 > 0.2 were transferred further.
A robotic liquid handling system was used to automatically prepare a 11 to 16-step serial dilution in 384-well microtiter plates (Greiner). A final concentration of 5 × 10^5 bacterial cells per mL were inoculated into each well containing 60 µL MHB medium. Bacterial cultures were incubated at 37 °C with continuous shaking (Infors shaker, 900 rpm with 3 mm throw) for 18 hours (2 replicates from each). Cell growth was monitored by measuring the optical density (OD600 values, using Biotek Synergy microplate reader). MIC was defined as the antibiotic concentration of complete growth inhibition (i.e., OD600 < 0.05). Relative MIC was calculated as follows:1 relativeMIC=MICevolved/MICancestor […]
Supplementary Figure 4. Resistance levels following adaptive laboratory evolution across bacterial strains. The level of resistance was measured as the fold change in relative MIC between evolved and ancestral strains after ~60 days of adaptive laboratory evolution. Data are grouped by bacterial strain (A. baumannii (AB), E. coli (EC), K. pneumoniae (KP), and P. aeruginosa (PA)) and categorized as either multidrug-resistant (MDR) or sensitive (SEN). Each data point represents a laboratory evolved line, and boxplots show the median, first and third quartiles, with whiskers indicating the 5th and 95th percentiles.
Statistical analysis was performed using two-sided Dunn’s post-hoc test with Benjamini-Hochberg correction for multiple comparisons (****/ ***/ **/ * indicates p < 0.0001/ 0.001/ 0.01/ 0.05). For detailed information on antibiotic and bacterial species, see Supplementary Table 1. For mode of action groups, refer to Table 1. Source data are provided as a Source Data file.

[1] = PA-SEN (ATCC BAA 3107), evolved line 2
[2] = PA-SEN (ATCC BAA 3107), evolved line 4
[3] = PA-SEN (ATCC BAA 3107), evolved line 8
[4] = PA-SEN (ATCC BAA 3107), evolved line 9
[5] = PA-SEN (ATCC BAA 3107), evolved line 10
[6] = PA-SEN ATCC BAA 3107, evolved line 1
[7] = PA-MDR (Pseudomonas aeruginosa LESB 58), evolved line 1
[8] = PA-MDR (Pseudomonas aeruginosa LESB 58), evolved line 6
[9] = PA-MDR, Pseudomonas aeruginosa LESB 58, evolved line 9
[10] = PA-SEN, Pseudomonas aeruginosa ATCC BAA 3107, evolved line 1
[11] = PA-SEN, Pseudomonas aeruginosa ATCC BAA 3107, evolved line 4
[12] = PA-SEN, Pseudomonas aeruginosa ATCC BAA 3107, evolved line 5

Which results are given for `COc1c(N2C[C@@H]3CCCN[C@@H]3C2)c(F)cc2c(=O)c(C(=O)O)cn(C3CC3)c12` [Moxifloxacin]?
MIC of evolved line [1]: 256 µg/mL; MIC of evolved line (PA-SEN (ATCC BAA 3107), evolved line 3): 512 µg/mL; MIC of evolved line [2]: 128 µg/mL; MIC of evolved line (PA-SEN (ATCC BAA 3107), evolved line 6): 512 µg/mL; MIC of evolved line (PA-SEN (ATCC BAA 3107), evolved line 7): 256 µg/mL; MIC of evolved line [3]: 512 µg/mL; MIC of evolved line [4]: 256 µg/mL; MIC of evolved line [5]: 128 µg/mL; MIC of evolved line [6]: 512 µg/mL

With `CC[C@H](C)CCCCC(=O)N[C@@H](CCN)C(=O)N[C@H](C(=O)N[C@@H](CCN)C(=O)N[C@H]1CCNC(=O)[C@H]([C@@H](C)O)NC(=O)[C@H](CCN)NC(=O)[C@H](CCN)NC(=O)[C@H](CC(C)C)NC(=O)[C@@H](Cc2ccccc2)NC(=O)[C@H](CCN)NC1=O)[C@@H](C)O` [Polymyxin B] (X2-[Dab]T[Dab][Dab][Dab][dF]L[Dab][Dab]T; lactam 4-C (inferred); N-terminus assumed) as the compound, how does the “Relative MIC (log10)” value [7] read?
Its value is 1.505 log10.

And the “Relative MIC (log10)” value [8]?
Its value is 1.806 log10.

What about the “Relative MIC (log10)” value [9] of the same compound?
Its value is 1.806 log10.

And the “Relative MIC (log10)” value (PA-MDR, Pseudomonas aeruginosa LESB 58, evolved line 2)?
Its value is 2.107 log10.

And the “Relative MIC (log10)” value (PA-MDR, Pseudomonas aeruginosa LESB 58, evolved line 7)?
The value was 1.204 log10.

What about the “Relative MIC (log10)” value [10] of the same compound?
Its value is 1.505 log10.

What about the “Relative MIC (log10)” value [11] of the same compound?
The value was 1.505 log10.

What about the “Relative MIC (log10)” value [12] of the same compound?
The value was 1.505 log10.

And the “Relative MIC (log10)” value (PA-SEN, Pseudomonas aeruginosa ATCC BAA 3107, evolved line 7)?
Its value is 1.204 log10.

And the “Relative MIC (log10)” value (PA-SEN, Pseudomonas aeruginosa ATCC BAA 3107, evolved line 8)?
Its value is 1.204 log10.

Which results are given for `CC(C)C[C@@H]1NC(=O)[C@@H](Cc2ccccc2)NC(=O)[C@H](CCN)NC(=O)[C@@H](NC(=O)[C@H](CN)NC(=O)[C@@H](NC(=O)C[C@H](CN)c2cccc(Cl)c2)[C@@H](C)O)CCNC(=O)[C@H]([C@@H](C)O)NC(=O)[C@H](CCN)NC(=O)[C@H](CCN)NC1=O` [SPR206] (X1-T[Dap][Dab][Dab][dF]L[Dab][Dab]T; lactam 3-C (inferred); N-terminus assumed)?
Relative MIC (ALE, P. aeruginosa ATCC BAA 3107 (PA-SEN), evolved line 1): 16; Relative MIC (ALE, P. aeruginosa ATCC BAA 3107 (PA-SEN), evolved line 2): 32; Relative MIC (ALE, P. aeruginosa ATCC BAA 3107 (PA-SEN), evolved line 4): 16; Relative MIC (ALE, P. aeruginosa ATCC BAA 3107 (PA-SEN), evolved line 5): 16; Relative MIC (ALE, P. aeruginosa ATCC BAA 3107 (PA-SEN), evolved line 8): 8; Relative MIC (ALE, P. aeruginosa ATCC BAA 3107 (PA-SEN), evolved line 9): 32; Relative MIC (ALE, P. aeruginosa ATCC BAA 3107 (PA-SEN), evolved line 10): 2; Relative MIC (PA-MDR (LESB 58), evolved line 1, evolved vs ancestor): 16; Relative MIC (PA-MDR (LESB 58), evolved line 2, evolved vs ancestor): 16; Relative MIC (PA-MDR (LESB 58), evolved line 3, evolved vs ancestor): 16; Relative MIC (PA-MDR (LESB 58), evolved line 4, evolved vs ancestor): 8; Relative MIC (PA-MDR (LESB 58), evolved line 5, evolved vs ancestor): 16; Relative MIC (PA-MDR (LESB 58), evolved line 6, evolved vs ancestor): 32; Relative MIC (PA-MDR (LESB 58), evolved line 7, evolved vs ancestor): 16; Relative MIC (PA-MDR (LESB 58), evolved line 8, evolved vs ancestor): 4; Relative MIC (PA-MDR (LESB 58), evolved line 9, evolved vs ancestor): 16; Relative MIC (PA-MDR (LESB 58), evolved line 10, evolved vs ancestor): 32; MIC of evolved line (PA-MDR (LESB 58), evolved line 4): 32 µg/mL; MIC of evolved line (PA-MDR (LESB 58), evolved line 5): 64 µg/mL; MIC of evolved line (PA-MDR (LESB 58), evolved line 6): 128 µg/mL; MIC of evolved line (PA-MDR (LESB 58), evolved line 7): 64 µg/mL; MIC of evolved line (PA-MDR (LESB 58), evolved line 8): 16 µg/mL; MIC of evolved line (PA-MDR (LESB 58), evolved line 9): 64 µg/mL; MIC of evolved line (PA-MDR (LESB 58), evolved line 10): 128 µg/mL; Relative MIC (log10) [7]: 1.204 log10; Relative MIC (log10) [8]: 1.505 log10; MIC of evolved line (PA-MDR LESB 58, evolved line 1): 64 µg/mL; MIC of evolved line (PA-MDR LESB 58, evolved line 2): 64 µg/mL; MIC of evolved line (PA-MDR LESB 58, evolved line 3): 64 µg/mL; Relative MIC (log10) [9]: 1.204 log10; Relative MIC (log10) (PA-MDR, Pseudomonas aeruginosa LESB 58, evolved line 10): 1.505 log10; Relative MIC (log10) (PA-MDR, Pseudomonas aeruginosa LESB 58, evolved line 3): 1.204 log10; Relative MIC (PA-SEN (ATCC BAA 3107), evolved line 1, evolved vs ancestor): 16; Relative MIC (PA-SEN (ATCC BAA 3107), evolved line 2, evolved vs ancestor): 32; Relative MIC (PA-SEN (ATCC BAA 3107), evolved line 4, evolved vs ancestor): 16; Relative MIC (PA-SEN (ATCC BAA 3107), evolved line 5, evolved vs ancestor): 16; Relative MIC (PA-SEN (ATCC BAA 3107), evolved line 8, evolved vs ancestor): 8; Relative MIC (PA-SEN (ATCC BAA 3107), evolved line 9, evolved vs ancestor): 32; Relative MIC (PA-SEN (ATCC BAA 3107), evolved line 10, evolved vs ancestor): 2; MIC of evolved line [1]: 32 µg/mL; MIC of evolved line [2]: 16 µg/mL; MIC of evolved line (PA-SEN (ATCC BAA 3107), evolved line 5): 16 µg/mL; MIC of evolved line [3]: 8 µg/mL; MIC of evolved line [4]: 32 µg/mL; MIC of evolved line [5]: 2 µg/mL; MIC of evolved line [6]: 16 µg/mL; Relative MIC (log10) [10]: 1.204 log10; Relative MIC (log10) (PA-SEN, Pseudomonas aeruginosa ATCC BAA 3107, evolved line 2): 1.505 log10; Relative MIC (log10) [11]: 1.204 log10; Relative MIC (log10) [12]: 1.204 log10; Relative MIC (log10) (PA-SEN, Pseudomonas aeruginosa ATCC BAA 3107, evolved line 9): 1.505 log10; Relative MIC (Pseudomonas aeruginosa ATCC BAA 3107 (PA-SEN), evolved line 1): 16; Relative MIC (Pseudomonas aeruginosa ATCC BAA 3107 (PA-SEN), evolved line 2): 32; Relative MIC (Pseudomonas aeruginosa ATCC BAA 3107 (PA-SEN), evolved line 4): 16; Relative MIC (Pseudomonas aeruginosa ATCC BAA 3107 (PA-SEN), evolved line 5): 16; Relative MIC (Pseudomonas aeruginosa ATCC BAA 3107 (PA-SEN), evolved line 8): 8; Relative MIC (Pseudomonas aeruginosa ATCC BAA 3107 (PA-SEN), evolved line 9): 32; Relative MIC (Pseudomonas aeruginosa ATCC BAA 3107 (PA-SEN), evolved line 10): 2; Relative MIC (Pseudomonas aeruginosa LESB 58 (PA-MDR), evolved line 1): 16; Relative MIC (Pseudomonas aeruginosa LESB 58 (PA-MDR), evolved line 2): 16; Relative MIC (Pseudomonas aeruginosa LESB 58 (PA-MDR), evolved line 3): 16; Relative MIC (Pseudomonas aeruginosa LESB 58 (PA-MDR), evolved line 4): 8; Relative MIC (Pseudomonas aeruginosa LESB 58 (PA-MDR), evolved line 5): 16; Relative MIC (Pseudomonas aeruginosa LESB 58 (PA-MDR), evolved line 6): 32; Relative MIC (Pseudomonas aeruginosa LESB 58 (PA-MDR), evolved line 7): 16; Relative MIC (Pseudomonas aeruginosa LESB 58 (PA-MDR), evolved line 8): 4; Relative MIC (Pseudomonas aeruginosa LESB 58 (PA-MDR), evolved line 9): 16; Relative MIC (Pseudomonas aeruginosa LESB 58 (PA-MDR), evolved line 10): 32

For POL7306, which “Relative MIC” value (ALE, Pseudomonas aeruginosa ATCC BAA 3107 (PA-SEN), evolved line 1) is on record?
Its value is 2.

What about the “Relative MIC” value (ALE, Pseudomonas aeruginosa ATCC BAA 3107 (PA-SEN), evolved line 2) of the same compound?
The value was 2.

And the “Relative MIC” value (ALE, Pseudomonas aeruginosa ATCC BAA 3107 (PA-SEN), evolved line 3)?
The value was 2.

And the “Relative MIC” value (ALE, Pseudomonas aeruginosa ATCC BAA 3107 (PA-SEN), evolved line 4)?
The value was 2.

What about the “Relative MIC” value (ALE, Pseudomonas aeruginosa ATCC BAA 3107 (PA-SEN), evolved line 6) of the same compound?
The value was 2.

What about the “Relative MIC” value (ALE, Pseudomonas aeruginosa ATCC BAA 3107 (PA-SEN), evolved line 8) of the same compound?
The value was 2.
